Where a name gives a salt, the structure may show the parent alone. Read-outs that look alike come from different tables or passages of the source.
Key:
EGFR = target: T1, EGFR (Homo sapiens, UniProt P00533); assay: EGFR in-cell Western (ICW) screening protocol (EGFR inhibition assay); format: cell-based; parameters: ICW 1 / ICW 2 / ICW Avg: unit not given here; settings: for ICW Avg / ICW 1 / ICW 2: ICW assay; for ICW Avg: average of runs 1 and 2; for ICW 1: run 1; for ICW 2: run 2
T1 construct: host or cells: A431
Description: The following example describes general EGFR in-cell Western (ICW) screening protocol. Methods are according to Chen et al. (2005) Analytical Biochemistry 338, 136-142 (incorporated herein by reference), except as otherwise noted.
Cell Plates: A431 cells (ATCC # CRL-1555) were grown in Dulbecco's Modified Eagle Medium (DMEM; ATCC #30-2002) supplemented with 10% fetal bovine serum, 105 units/ml pen/strep (Invitrogen #15140155) and 2.1 mM L-glutamine (ATCC #30-2214). Cells were seeded into 96 well tissue culture plates (BD Falcon #353948) at a density of 30,000 cells per well and incubated at 37° C. with 5% CO2 overnight. Two cell plates were prepared for each compound plate.
Serum Starvation: The cells were serum starved prior to compound addition. The media was removed by aspiration and the cells washed with PBS (200 μl/well; Invitrogen #20012-027). The PBS was removed by aspiration and replaced with 200 μl of DMEM (ATCC #30-2002) supplemented with 105 units/ml pen/strep (Invitrogen #15140155) and 2.1 mM 1-glutamine (ATCC #30-2214). The cell plates were incubated at 37° C./5% CO2 for 2 hours.
Compound Plate Preparation: The test compounds were solvated in 100% DMSO (Sigma #472301-2L) at a concentration of 25 mM. Compounds found not to be completely soluble in 100% DMSO at 25 mM were diluted to 10 mM with 100% DMSO and TFA (Fluka #91699) added to a final concentration of 0.2%. 40 μl of test compound was added to the appropriate well of a 96 well plate (Falcon #351190). As controls, 6 μM EGFR kinase inhibitor PD168393 (EMD/Calbiochem #513033) in 100% DMSO and DMSO alone were added to various wells. Prepared compound plates were stored at RT prior to use and at 4° C. long term.
Compound Dilution Plate Preparation: 250 μl of DMEM supplemented with 1 mg/ml BSA (Sigma A3059-10G) was added to the appropriate wells of a 96 well plate to prepare the compound dilution plates. Using a multichannel pipettor, 1.25 μl of compound from the compound plate was transferred into the compound dilution plate.
Compound Addition: The starve media was removed from the cell plates by aspiration. Using a multichannel pipettor, the compound dilution plates were mixed by pipetting up and down three times. 50 μl of mixed, diluted compound was added to each of two rows/columns on each of two cell plates. The cell plates with compound were incubated at 37° C./5% CO2 for 4 hours.
EGF Addition: 20 ng/ml EGF (Upstate #01-107) was prepared in DMEM supplemented with 1 mg/ml BSA. 50 μl of 20 or 0 ng/ml EGF was added to the appropriate wells without the removal of compound. The compound and EGF were mixed by pipetting up and down three times. The plates were incubated at 37° C./5% CO2 for 10 min. In some screening assays the final concentration of EGF used for simulation was 6.6, or 12.5 ng/ml rather than 10 ng/ml.
Fixation and Triton Washing: The EGF+compound was removed by aspiration and 150 μl of freshly prepared Fixation Solution (1×PBS, Sigma P3813-10PK, and 4% Formaldehyde, Pierce #28908) was immediately added. The plates were incubated at RT for 20 min without shaking. The Fixation Solution was removed by aspiration and the plates washed four times with 200 μl each of Triton Wash Solution (1×PBS, Sigma P3813-10PK, and 0.1% Triton X-100, T8787-50ML) for 5 min with gentle shaking.
Blocking and Probing: Following the last Triton Wash, the plates were blocked for 1.5 h at RT with shaking using 150 μl of Odyssey Blocking Buffer (LI-COR #927-40000). The block was removed by aspiration and 50 μl of diluted primary Ab mix was added. The plates were incubated at 4° C. overnight with gentle shaking. The plates were washed five times with 200 μl of PBST (1×PBS, Sigma P3813-10PK, and 0.1% Tween-20, Sigma P9416-50ML) for 5 min each with shaking 50 μl of diluted secondary Ab mix was added and the plates incubated at RT for 1 h with shaking. The plates were washed 5× with 200 μl of PBST for 5 min each with shaking. […]

[1] = system: epithelial carcinoma A431 cell line; assay: MTT Cell Proliferation Assay, A431 cells; format: cell-based; settings: for MTT Assay IC50(A431/MDBK): ratio in parentheses: ratio MDBK IC50 / A431 IC50 (selectivity)
Excerpt: (§1) The following example describes the MTT Cell Proliferation Assay.
(§2) The MTT Cell Proliferation Assay is a colorimetric assay system that measures the reduction of the tetrazolium salt MTT (3-(4,5-dimethylthiazol-2-yl)-2,5-diphenyltetrazolium bromide) into insoluble formazan crystals, produced by the mitochondria of viable cells. […] The color can then be quantified by spectrophotometric means. Among the applications for the method are drug sensitivity, cytotoxicity, response to growth factors, and cell activation. The reduction of tetrazolium salts is now recognized as a safe, accurate alternative to radiometric testing.
(§3) Two replicates on each cell plate and 2 duplicate plates gave 4 individual replicates of each concentration, in each cell line. Concentrations were diluted in 100% DMSO from 25 mM stocks.
(§4) Twelve 96 well plates of each cell line were plated. Plating was done by dislodging cells as in passage protocol, counting on a hemocytometer, re-suspending in standard growth media, and plating using a multichannel pippetor.
(§5) 16 μl of 25 mM stock+34 μl DMSO=8 mM starting concentrations, and serial diluted as with test compounds in same plate. […] Two replicates of each concentrations was run on each cell plate. All compound addition and cell treatments were done using aseptic technique under a laminar flow aseptic hood.
(§6) Control: 0.5% DMSO in treatment media was used as the control.
(§7) MTT dye (Thiazolyl Blue Tetrazolium Bromide, Sigma cat #M5655) stock was prepared in bulk and stored at 4° C. for use: 5 mgs/ml sterile PDS, shielded from light. 4 ul of this stock per 100 uls treatment media per well was used.
(§8) Plates were incubated overnight prior to treatment, with treatment day=Day 0. Compound treatments were prepared prior to washing cells to minimize time cells were dry at room temperature after final aspiration. Compounds were diluted in 100% DMSO in 96 well polypropylene plates: 40 μl 25 mM stock+10 μl DMSO=20 mM; 20 μl of 20 mM+30 μl DMSO=8 mM; 20 μl of 8 mM+30 μl DMSO=3.2 mM; 20 μl of 3.2 mM+30 μl DMSO=1.3 mM; 20 μl of 1.3 mM+30 μl DMSO=0.51 mM.
(§9) 5.0 μl/ml were added to treatment media, in sterile, 2.2 ml deep well plates=0.5% dmso final. Ten μl of each dmso concentration was added to 2.0 ml of treatment media and then mixed using a 1200 μl multichannel pipettor. Cell plates were treated from the deep well plates. Treatment media was standard growth media containing 0.5% FBS and standard additions. This reduced FBS concentration allowed for a slower growth rate in cells.
(§10) Media was aspirated from cell plates, and washed with 200 μl/well sterile PBS. Aspirated PBS wash, and cell plates were treated with 200 μl of compound/treatment media per well, and incubated at 37° C., 5% CO2 for 3 days.
(§11) Prior to harvesting, visual observations were made under an inverted microscope. Plates were harvested by: aspirating the growth media; adding back MTT dye/100 μl treatment media; and incubating plates at 37° C. for 1 hour. MTT dye was aspirated. 100 μl/well dmso was added, and then shaken on a Bellco plate shaker for 5 minutes, at 4.5 setting.
(§12) Plates were read in a Tecan Sunrize UV plate reader, at 560 nm. Settings: Read mode, Outside Normal 2 sec; Shake settle time 3 sec. Data is reported as % inhibition, calculated for individual plates using control values from that plate.

MDBK line = assay: MTT Cell Proliferation Assay, MDBK cells; format: cell-based, bovine
Excerpt: as §1, §2, §3, §4, §5, §6, §7, §8, §9, §10, §11, §12

[2] = Homo sapiens, A-431, first value of 'a/b (c)', taken as A431 cells, read-out: MTT Screen, first value of cell
[3] = Bos taurus, MDBK, second value of 'a/b (c)', taken as MDBK cells, read-out: MTT Screen, second value of cell
[4] = Homo sapiens, A-431, A431 cells, first value of cell, read-out: MTT Assay IC50(A431/MDBK): A431
[5] = Bos taurus, MDBK, MDBK cells, second value of cell, read-out: MTT Assay IC50(A431/MDBK): MDBK

T1 sequence (P00533 25-1210): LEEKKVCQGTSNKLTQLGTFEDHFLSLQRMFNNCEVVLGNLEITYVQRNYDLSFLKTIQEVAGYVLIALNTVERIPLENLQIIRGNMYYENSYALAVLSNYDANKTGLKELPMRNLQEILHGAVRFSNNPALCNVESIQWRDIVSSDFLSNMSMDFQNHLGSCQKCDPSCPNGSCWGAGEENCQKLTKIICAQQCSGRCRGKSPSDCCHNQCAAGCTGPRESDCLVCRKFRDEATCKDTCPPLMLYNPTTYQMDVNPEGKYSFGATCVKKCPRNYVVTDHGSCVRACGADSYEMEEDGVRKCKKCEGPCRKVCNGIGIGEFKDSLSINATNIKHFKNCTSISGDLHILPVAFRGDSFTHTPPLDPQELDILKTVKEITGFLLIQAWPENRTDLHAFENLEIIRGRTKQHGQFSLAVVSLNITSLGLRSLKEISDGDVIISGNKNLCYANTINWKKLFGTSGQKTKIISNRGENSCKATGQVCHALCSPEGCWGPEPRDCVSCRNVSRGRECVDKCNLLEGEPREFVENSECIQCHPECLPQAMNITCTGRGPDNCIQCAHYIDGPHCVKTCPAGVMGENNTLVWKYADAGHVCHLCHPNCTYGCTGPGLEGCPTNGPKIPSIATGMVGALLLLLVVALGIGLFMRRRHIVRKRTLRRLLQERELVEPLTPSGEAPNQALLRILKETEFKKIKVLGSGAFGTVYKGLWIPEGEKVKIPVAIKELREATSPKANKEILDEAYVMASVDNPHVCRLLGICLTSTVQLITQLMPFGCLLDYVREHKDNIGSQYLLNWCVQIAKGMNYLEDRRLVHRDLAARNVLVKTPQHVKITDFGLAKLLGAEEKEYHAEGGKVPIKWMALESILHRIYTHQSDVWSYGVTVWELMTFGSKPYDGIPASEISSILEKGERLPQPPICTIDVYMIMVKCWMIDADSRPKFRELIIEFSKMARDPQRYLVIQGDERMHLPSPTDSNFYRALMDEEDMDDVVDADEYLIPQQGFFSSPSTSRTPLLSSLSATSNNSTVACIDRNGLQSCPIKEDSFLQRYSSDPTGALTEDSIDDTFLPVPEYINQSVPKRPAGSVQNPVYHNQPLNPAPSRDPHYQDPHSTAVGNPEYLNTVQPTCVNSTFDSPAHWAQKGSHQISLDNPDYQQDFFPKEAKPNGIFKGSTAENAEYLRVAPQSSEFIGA

Row | SMILES | ICW Screen (ICW Inhibition) (EGFR) | IC50 [1, 2] [µM] | ICW Avg (EGFR) | ICW 1 (EGFR) | ICW 2 (EGFR) | MTT Assay IC50(A431/MDBK): ratio in parentheses [1] | IC50 (MDBK line; [3]) [µM] | other results
1 | Cc1ccc2[nH]c(Nc3nc(C)cc(-c4ccccc4)n3)nc(=O)c2c1 [compound 11315] |  |  | 49.58 | 48.33 | 50.82 | very selective |  | MTT Assay, MDBK percent at a single concentration (MDBK line; MDBK, at 100 μM): 20%
2 | O=c1cc(C(F)(F)F)[nH]c(Nc2nc(-c3ccccc3)c3cc(Cl)ccc3n2)n1 [11759 + TFA] |  |  | 32.41 | 38.43 | 26.39 | 0.52 |  | IC50 [1, 4]: 14.2 µM; IC50 (MDBK line; [5]): 7.36 µM
3 | CC(C)c1ccc(NC(=S)Nc2ccc(S(=O)(=O)Nc3cc(Cl)cc(Cl)c3)cc2)cc1 [AD4-12424] |  |  |  |  |  |  |  | ICW assay (EGFR; Table 10, % Inhibition of EGF dependent EGFR phosphorylation in A431 cells, compound 125 μM in assay): 82.3761; IC50 ([1]; Homo sapiens, A-431, 72 h, Table 10, first of x/y(ratio): A431, three day treatment, unit not printed (doses in μM), read-out: MTT assay (first value)): 4.08 µM; IC50 (MDBK line; Bos taurus, MDBK, 72 h, Table 10, second of x/y(ratio): MDBK, three day treatment, unit not printed (doses in μM), read-out: MTT assay (second value)): 4.73 µM

Further lines, with some results ahead:

Row | ICW Screen (ICW Inhibition) (EGFR) | IC50 [1, 2] [µM] | ICW Avg (EGFR) | ICW 1 (EGFR) | ICW 2 (EGFR) | MTT Assay IC50(A431/MDBK): ratio in parentheses [1] | SMILES | IC50 (MDBK line; [3]) [µM] | other results
4 | 36.966 | 32.3 |  |  |  |  | CCN(CC)S(=O)(=O)c1ccc(NC(=S)NC(=O)CC(C)C)cc1 [AD4-12049] | 12 | 
5 | 30.841 | 11.7 |  |  |  |  | CCCC(=O)NC(=S)Nc1ccc(S(=O)(=O)NCCc2ccccc2)cc1 [AD4-10612] | 13.2 | 
6 | 30.376 | 25.3 |  |  |  |  | CCC(c1ccccc1)S(=O)(=O)c1ccc(NC(=S)NC(=O)C(C)C)cc1 (centres unmarked) [AD4-12029] | 51.1 | 
7 |  |  | 51.10 | 47.93 | 54.26 | 1.00 | Cc1nc(Nc2nc(=O)cc(CSc3ccc(Cl)cc3)[nH]2)nc2ccccc12 [11583 + TFA] |  | IC50 ([1]; A431 cells, first value of cell, read-out: MTT Assay IC50(A431/MDBK): A431): 47.3 µM; IC50 (MDBK line; MDBK cells, second value of cell, read-out: MTT Assay IC50(A431/MDBK): MDBK): 47.3 µM
8 |  |  | 25.81 | 28.01 | 23.61 | 1.45 | COc1ccc2c(C)nc(Nc3nc(C)cc(-c4ccccc4)n3)nc2c1 [compound 12676] |  | IC50 [1, 4]: 12.9 µM; IC50 (MDBK line; [5]): 18.8 µM

Reference: patent US20140179681A1, “METHODS AND COMPOSITIONS OF TARGETED DRUG DEVELOPMENT” (priority 2010, published 2014)
